Reference: EP1652839A2, “Drug efflux pump inhibitor” (priority 1999, dated 2001)

System: Pseudomonas aeruginosa PAM 1723 strain highly expressing the drug efflux pump
Test: Effect of combinational use with an antimicrobial agent on multidrug resistant Pseudomonas aeruginosa (broth culture, transmittance and turbidity readout)
Assay type: cell-based
Conditions: minimum concentration of compound required to enhance antibacterial activity, MHB, 1 × 10^6 CFU/ml; for Combination with AZT: azthreonam (AZT) at 1/8 or less of the minimum inhibitory concentration, combinational use for 18 hours; for Combination with LVFX: levofloxacin (LVFX) at 1/8 or less of the minimum inhibitory concentration, combinational use for 7.5 hours
Source text: Test Example 1: Effect of combinational use with an antimicrobial agent on multidrug resistant Pseudomonas aeruginosa
As multidrug resistant Pseudomonas aeruginosa, Pseudomonas aeruginosa PAM 1723 strain highly expressing the drug efflux pump was used. As antimicrobial drugs for the combinational uses, levofloxacin (LVFX) as a quinolone antibacterial agent and azthreonam (AZT) as a monobactam antibiotic were used.
Each of the compounds shown in Table 1 with Example No., which falls within the compounds of the present invention, was subjected to the measurement of its minimum concentration (µg/ml) that was required to enhance the antibacterial activity of the antibacterial agent when the test compound was used in combination with the antibacterial drug applied at a concentration of 1/4, or 1/8 or less of the minimum inhibitory concentration against the PAM 1723 strain. […] As for levofloxacin, effects were indicated as combinational uses for 7.5 hours, and as for azthreonam, effects as combinational uses for 18 hours was indicated. The Müller-Hinton broth (MHB, Difco) was used as a medium, and the inoculated amount of the bacteria was 1 × 10^6 CFU/ml. Effects were determined by optically measuring the transmittance of the bacterial culture with time, and visually observing the turbidity of the medium.

Row | SMILES | Combination with AZT | Combination with LVFX
1 | CC(C)c1cccc(COc2cccc(NC(=O)Cc3ccccc3C(=O)O)c2)n1 [Example 9, 2-(2-3-[(6-Isopropyl-2-pyridyl)methoxy]anilino-2-oxoethyl)benzoic acid] | 2.5 µg/mL | 0.63 µg/mL
2 | CC(C)c1csc(/C=C/c2cccc(NC(=O)Cc3ccccc3C(=O)O)n2)n1 [Example 18, 2-[2-(6-[(E)-2-(4-Isopropyl-1,3-thiazol-2-yl)-1-ethenyl]-2-pyridylamino)-2-oxoethyl]benzoic acid] | 20 µg/mL | 10 µg/mL
3 | CC(C)c1csc(/C=C/c2cncc(NC(=O)[C@H]3OC(C)(C)O[C@@H]3C(=O)O)c2)n1 [Example 15, (4S,5S)-5-[(5-[(E)-2-(4-Isopropyl-1,3-thiazol-2-yl)-1-ethenyl]-3-pyridyl-amino)carbonyl]-2,2-dimethyl-1,3-dioxolane-4-carboxylic acid] | 40 µg/mL | 20 µg/mL
4 | CC(C)c1csc(/C=C/c2cncc(NC(=O)Cc3ccccc3C(=O)O)c2)n1 [Example 17, 2-[2-(5-[(E)-2-(4-Isopropyl-1,3-thiazol-2-yl)-1-ethenyl]-3-pyridylamino)-2-oxoethyl]benzoic acid] | 1.25 µg/mL | 0.63 µg/mL
5 | COC(=O)c1cc(NC(=O)Cc2ccccc2C(=O)O)cc(OCc2nc(C(C)C)cs2)c1 [Example 16, 2-(3-((4-Isopropyl-1,3-thiazol-2-yl)methoxy)-5-(methoxycarbonyl)anilino)-2-oxoethylbenzoic acid] | 160 µg/mL | 160 µg/mL
6 | O=C(Cc1ccccc1C(=O)O)Nc1cccc(/C=C/c2nc3cccnc3s2)c1 [Example 6, 2-(2-Oxo-2-{3-[(E)-2-(pyrido[3,2-d][1,3]thiazol-2-yl)-1-ethenyl]anilino}ethyl)benzoic acid] | 5 µg/mL | 20 µg/mL
7 | O=C(Cc1ccccc1C(=O)O)Nc1cccc(C2CC2c2nc(-c3ccccc3)cs2)c1 (centres unmarked) [Example 11, 2-(2-Oxo-2-{3-[2-(4-phenyl-1,3-thiazol-2-yl)cyclopropyl]anilino}ethyl)benzoic acid] | 40 µg/mL | >40 µg/mL
8 | O=C(Cc1ccccc1C(=O)O)Nc1cccc(C(=O)Nc2nc(-c3ccccc3)cs2)c1 [Example 12, 2-(2-Oxo-2-(3-((4-phenyl-1,3-thiazol-2-yl)amino)carbonylanilino)ethyl)-benzoic acid] | 20 µg/mL | >40 µg/mL
9 | CC(C)c1nc(/C=C/c2cccc(NC(=O)Cc3ccccc3C(=O)O)c2)sc1N [Example 5, 2-{2-[3-((E)-2-{5-Amino-4-isopropyl-1,3-thiazol-2-yl}-1-ethenyl)amino]-2-oxoethyl}benzoic acid] | 20 µg/mL | 10 µg/mL
10 | CC(C)c1nc(/C=C/c2cccc(NC(=O)Cc3ccccc3C(=O)O)c2)sc1Cl [Example 3, 2-(2-3-[(E)-2-(4-Isopropyl-5-chloro-1,3-thiazol-2-yl)-1-ethenyl]anilino-2-oxoethyl)benzoic acid] |  | <=2.5 µg/ml
11 | O=C(Cc1ccccc1C(=O)O)Nc1cccc(/C=C/c2ccc(-c3ccccc3)o2)c1 [Example 4, 2-[2-Oxo-2-{3-[(E)-(5-phenyl-2-furyl)-1-ethenyl]anilino}ethyl]benzoic acid] | 2.5 µg/mL | 10 µg/mL
12 | CC(C)c1csc(COc2cc(N)cc(NC(=O)Cc3ccccc3C(=O)O)c2)n1 [Example 14, 2-(3-Amino-5-((4-isopropyl-1,3-thiazol-2-yl)methoxy)anilino-2-oxoethyl)-benzoic acid] | 10 µg/mL | 10 µg/mL
13 | O=C(Cc1ccccc1C(=O)O)Nc1cccc(CCc2nc(-c3ccccc3)cs2)c1 [Example 10, 2-(2-Oxo-2-{3-[2-(4-phenyl-1,3-thiazol-2-yl)ethyl]anilino}ethyl)benzoic acid] | 2.5 µg/mL | 20 µg/mL
14 | O=C(Cc1ccccc1C(=O)O)Nc1cccc(/C=C/c2nc(-c3ccncc3)cs2)c1 [Example 8, 2-[2-Oxo-2-(3-(E)-2-[4-(4-pyridyl)-1,3-thiazol-2-yl]-1-ethylanilino)ethyl]-benzoic acid] | 2.5 µg/mL | 0.63 µg/mL
15 | O=C(Cc1ccccc1C(=O)O)Nc1cccc(/C=C/c2nc3ccccc3o2)c1 [Example 7, 2-(2-3-[(E)-2-(1,3-Benzoxazol-2-yl)-1-ethenyl]anilino-2-oxoethyl)benzoic acid] | 5 µg/mL | 2.5 µg/mL
16 | O=C(Cc1ccccc1C(=O)O)Nc1cccc(/C=C/c2nc(-c3ccccc3)cs2)c1 [Example 1, 2-(2-Oxo-2-3-[(E)-2-(4-phenyl-1,3-thiazol-2-yl)-1-ethenyl]anilinoethyl)-benzoic acid] | 1.25 µg/mL | <=0.63 µg/ml
17 | O=C(Cc1ccccc1C(=O)O)Nc1cccc(OCc2ccc3ccccc3n2)c1 [Example 2, 2-{2-Oxo-2-[3-(2-quinolylmethoxy)anilino]ethyl}benzoic acid] | 5 µg/mL | 20 µg/mL
18 | CC(C)c1nsc(COc2cc(NC(=O)Cc3ccccc3C(=O)O)c(F)cc2F)n1 [Example 13, 2-(2-2,4-Difluoro-5-[(3-isopropyl-1,2,4-thiadiazol-5-yl)methoxy]anilino-2-oxoethyl)benzoic acid] | 1.25 µg/mL | <=0.63 µg/ml
